Tests used:
[1] = system: MDA-MB231-luc-D3H2LN cells; assay: Invasion of MDA-MB231-D3H2LN cells into collagen (example 15 = procedure 2, 48 h drug pre-incubation); assay type: cell-based; conditions: concentration giving 50% of the anti-invasive effect of 10 μM Y-27632; 48 h pre-incubation, 24 h with 5% FBS; read-out: MDA: Inhib. of invasion: 0.5 × eff. of 10 μM Y-27632 at (μM) av
Description: Effect of Drug Compounds on Invasion of MDA-MB231-D3H2LN Cells into Collagen
Preparation of cells at the bottom of a collagen gel: Cells are suspended in a liquid collagen solution (4° C.), distributed into BSA-coated wells, and then collected at the bottom of the wells by centrifugation. The collagen is then solidified by incubation at 37° C. The BSA coating improves the adhesion of the collagen gel.
Pre-treatment with the compounds to be tested: Concentrated drug solutions are then added on top of the collagen, and cells are pre-incubated for 48 h with the drugs at low serum conditions (0.025% FBS).
Stimulation of invasion: Medium with 5% FBS is then added in order to stimulate invasion of the cells into the collagen gel.
(§1) Viability assay, fixation and staining: Following another 24 h incubation, an MTS assay is performed directly on the cells in the collagen. Then, cells are fixed and nuclei are stained.
Analysis: Finally, plates are analyzed using an automated microscope. Fluorescent beads that have been included into the BSA coating serve to detect the bottom of the wells. Pictures of the stained nuclei are taken at the same level (0 μm) as well as 25 μm and 50 μm above.
Negative control: No drug (just DMSO at equivalent concentration). Positive control: 10 μM Y-27632. To avoid edge effects, cells are added only to the 60 central wells B2-G11; lines A and H receive only collagen without cells (blank for the MTS assay) columns 1 and 12 remain free. Each drug is tested at least in triplicate. The positive and negative controls should be tested in several triplicates at different positions on each plate. Typical plate map (−=negative control, +=positive control, 1-12=12 different test conditions, i. e. different drug compounds or concentrations):
Preparation of 4× concentrated drug solutions in MEM+0.1% FBS+2% Lutrol E-400+0.8% DMSO: Mix each 620 μl MEM+0.1% FBS+2% Lutrol E-400 with each 4 μl DMSO+each 1 μl of the 50 mM compound stock solutions (yielding […] and 0.8% DMSO). If the desired final compound concentration is <5 μM, then further dilute in MEM+0.1% FBS+0.8% DMSO. Negative control: MEM+0.1% FBS+2% Lutrol E-400+0.8% DMSO without any drug. Preparation of the positive control: Mix 4.5 ml MEM+0.1% FBS+2% Lutrol E-400+[…] with 36 μl 5 mM Y-27632 (freshly thawed aliquot) (yielding 40 μM).
add each 33 μl/well of the 4× concentrated drug solutions in MEM+0.1% FBS+2% Lutrol E-400+0.8% DMSO to the corresponding wells (yields 1× concentrated drugs in MEM+0.025% FBS+0.5% Lutrol E-400+0.2% DMSO final)
incubate 48 h at 37° C./5% CO2
incubate 24 h at 37° C./5% CO2
for each well, calculate the mean invasion distance of the counted cells: (25 μm×number of cells at 25 μm+50 μm×number cells at 50 μm)/sum of cells at 0, 25 and 50 μm
invalidate any replicate with a CV≥50% (compound to be re-tested, or assay to be repeated if CV≥50% for the untreated negative control or the compound Y-27632-treated positive control). Y27632 is a selective inhibitor of the Rho-associated protein kinase p160ROCK of the following formula
validate the assay only if the mean invasion distance of the cells treated with 10 μM Y-27632 (positive control) is decreased by ≥40% as compared to the untreated negative control
(§2) Final analysis: Determine the concentration at which a given compound has 50% of the anti-invasive effect of the positive control (10 μM Y-27632). Determine the toxicity (=loss of viability) of the compound under these conditions.
Here, invasion (into collagen) is the concentration of the compound necessary to reach 50% of the inhibition effect compared to 10 μM Y-27632.
Standard operating procedure 2 is exactly the same as the procedure as described in example 15.

[2] = system: MDA-MB231-luc-D3H2LN cells; assay: Toxicity assay under normal cell culture conditions (MTS), MDA cells; assay type: cell-based, human; conditions: MDA-MB231-luc-D3H2LN cells, MEM+10% FBS, 72 h incubation, MTS
Description: (§3) In order to detect possible toxic effects, all compounds are tested in parallel in a viability assay. The viability assay is performed in parallel on serum-starved cells (as in the invasion assay) vs. cells under normal culture conditions (10% FBS).
(§4) Toxicity Assays (Under Normal Cell Culture Conditions):
(§5) Compounds were prepared as for the invasion assay, and then added to either MDA-MB231-luc-D3H2LN cells (2000/well) under normal culture conditions (MEM+10% FBS), or human PBMC (75000/well, in RPMI+10% FBS+IL-2) in standard 96-well tissue culture plates. After 72 h incubation, a standard MTS assay was performed according to the manufacturer's instructions (Promega Ref. G3581). Compounds were tested at various concentrations (concentration-response curves) in order to determine the concentrations at which 50% toxicity is obtained.

human PBMC = assay: Toxicity assay under normal cell culture conditions (MTS), PBMC; assay type: cell-based; conditions: human PBMC, RPMI+10% FBS+IL-2, 72 h incubation, MTS
Description: as §4, §5

[3] = system: MDA-MB231-luc-D3H2LN cells; assay: Viability (MTS) assay on the cells in collagen under invasion assay conditions; assay type: cell-based, human; conditions: loss of viability at the concentration giving 0.5 × effect of 10 μM Y-27632, invasion assay conditions
Description: as §1, §3
Viability Assay: MTS Assay:
add each 33 μl/well of the MTS reagent, incubate 3-4 h at 37° C./5% CO2
read absorbance at 490 nm (proportional to the viability)
calculate the background-corrected signals by subtracting the means of the background signals in absence of cells from the corresponding signals in presence of cells
normalize the background-corrected signals with respect to the mean signal of the negative controls (no drug) (viabilities are thus expressed in “% of control”)
as §2

Compound	IC50 [1]	MDA tox: 50% tox. at (μM) av [2]	PBMC tox.: 50% tox. at (μM) av (human PBMC)	(+ MDA tox. under these cond.) % tox [3]
CCN(CC)CCCNC(=O)c1cccc(Nc2ccc(C(=O)Nc3ccncc3)cc2)c1 [Compound 13, N-(3-(diethylamino)propyl)-3-((4-(pyridin-4-ylcarbamoyl)phenyl)amino)benzamide]	> 5 µM	93 µM	34 µM	–
CCN(CC)CCCNS(=O)(=O)c1cccc(Nc2cccc(C(=O)N(C)c3ccncc3)c2)c1 [Compound 19, 3-((3-(N-(3-(diethylamino)propyl)sulfamoyl)phenyl)amino)-N-methyl-N-(pyridin-4-yl)benzamide]	> 5 µM	>100 µM	>100 µM	–
CCN(CC)CCCNC(=O)c1ccc(Nc2cccc(C(=O)Nc3ccncc3)c2)cc1 [Compound 2, 3-((4-((3-(diethylamino)propyl)carbamoyl)phenyl)amino)-N-(pyridin-4-yl)benzamide]	> 5 µM	103 µM	156 µM	–
CN(C(=O)c1cccc(Nc2cccc(S(=O)(=O)NCCCN3CCOCC3)c2)c1)c1ccncc1 [Compound 23, N-methyl-3-((3-(N-(3-morpholinopropyl)sulfamoyl)phenyl)amino)-N-(pyridin-4-yl)benzamide]	> 5 µM	>100 µM	>70 µM	–
CCN(CC)CCCNC(=O)c1cccc(Nc2ccc(C(=O)Nc3ccncc3)cc2)n1 [Compound 36, N-(3-(diethylamino)propyl)-6-((4-(pyridin-4-ylcarbamoyl)phenyl)amino)picolinamide]	> 5 µM	>>100 μM	58 µM	–

Now from value to compound, other results behind:

IC50 [1]	Compound	MDA tox: 50% tox. at (μM) av [2]	PBMC tox.: 50% tox. at (μM) av (human PBMC)	(+ MDA tox. under these cond.) % tox [3]
7.5 µM	CN1CCN(C(=O)c2cccc(Nc3cccc(C(=O)Nc4ccncc4)c3)c2)CC1 [Compound 8, 3-((3-(4-methylpiperazine-1-carbonyl)phenyl)amino)-N-(pyridin-4-yl)benzamide]	>>100 μM	–	–
0.85 µM	CN1CCN(CCCNC(=O)c2cccc(Nc3cccc(C(=O)N(C)c4ccncc4)c3)c2)CC1 [Compound 20, N-methyl-3-((3-((3-(4-methylpiperazin-1-yl)propyl)carbamoyl)phenyl)amino)-N-(pyridin-4-yl)benzamide]	>100 µM	>100 µM	<10%
0.1 µM	CN1CCN(CCCNC(=O)c2cccc(Nc3cccc(C(=O)Nc4ccncn4)c3)c2)CC1 [Compound 31, N-(3-(4-methylpiperazin-1-yl)propyl)-3-((3-(pyrimidin-4-ylcarbamoyl)phenyl)amino)benzamide]	95 µM	92 µM	<10%
7.5 µM	CCN(CC)CCCNS(=O)(=O)c1cccc(Nc2cc(C(=O)Nc3ccncc3)ccn2)c1 [Compound 46, 2-((3-(N-(3-(diethylamino)propyl)sulfamoyl)phenyl)amino)-N-(pyridin-4-yl)isonicotinamide]	>100 µM	>100 µM	–
≥ 4.6 µM	O=C(Nc1ccncc1)c1ccc(Nc2cccc(S(=O)(=O)NCCN3CCCC3)c2)cc1 [Compound 16, N-(pyridin-4-yl)-4-((3-(N-(2-(pyrrolidin-1-yl)ethyl)sulfamoyl)phenyl)amino)benzamide]	78 µM	10 µM	–
> 2.5 µM	O=C(NCCCN1CCOCC1)c1cccc(Nc2ccc(C(=O)Nc3ccncc3)cc2)c1 [Compound 14, N-(3-morpholinopropyl)-3-((4-(pyridin-4-ylcarbamoyl)phenyl)amino)benzamide]	70 µM	20 µM	–

— US9969715B2, “Compounds useful for treating cancer” (ABIVAX, priority 2012, dated 2018)
